Values of other authors as cited in article PMC9653995, “New Positive TRPC6 Modulator Penetrates Blood–Brain Barrier, Eliminates Synaptic Deficiency and Restores Memory Deficit in 5xFAD Mice” (International Journal of Molecular Sciences, 2022).

Tested on: TRPC3
Conditions: cited from earlier work

For O=C(c1cc2c(s1)CCCCC2)N1CCC(n2c(=O)[nH]c3ccccc32)CC1 [GSK1702934A, reference compound], the “activation of TRPC3” value is given as “activate TRPC3”.
